This experiment deals with T1, M-phase inducer phosphatase 2 (Homo sapiens, UniProt P30305).
T1 sequence (P30305 whole entry): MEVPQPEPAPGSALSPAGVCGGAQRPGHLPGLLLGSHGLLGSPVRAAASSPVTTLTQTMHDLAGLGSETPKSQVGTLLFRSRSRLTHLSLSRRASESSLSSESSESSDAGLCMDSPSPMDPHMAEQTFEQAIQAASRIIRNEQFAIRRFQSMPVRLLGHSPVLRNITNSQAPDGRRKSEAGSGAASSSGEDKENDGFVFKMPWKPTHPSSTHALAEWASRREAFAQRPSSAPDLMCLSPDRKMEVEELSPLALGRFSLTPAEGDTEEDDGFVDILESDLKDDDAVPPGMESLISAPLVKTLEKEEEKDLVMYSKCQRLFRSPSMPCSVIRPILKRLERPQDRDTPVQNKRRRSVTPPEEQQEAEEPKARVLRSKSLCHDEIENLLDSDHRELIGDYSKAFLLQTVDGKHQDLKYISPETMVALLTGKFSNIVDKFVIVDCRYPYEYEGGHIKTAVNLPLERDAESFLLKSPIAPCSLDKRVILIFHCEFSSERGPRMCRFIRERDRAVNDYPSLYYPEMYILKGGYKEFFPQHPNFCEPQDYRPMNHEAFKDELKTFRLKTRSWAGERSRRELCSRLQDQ
The experiment is described as follows: Cdc25B catalytic domain phosphatase inhibitors, dose response, biochemical, with glutathione, probe assessment (AID 671).

For the compound `O=C(O)C1Nc2c(O)cccc2C2C=CCC12` (stereo unspecified), the IC50 worked out at 6.76 µM.

`COc1ccc(Br)cc1C=c1sc2nc(-c3ccco3)nn2c1=O` [5-[(5-bromanyl-2-methoxy-phenyl)methylidene]-2-(furan-2-yl)-[1,3]thiazolo[3,2-b][1,2,4]triazol-6-one]: the IC50 came to 2.13 µM.

In the case of `O=C1C=Cc2ccccc2C1=O` [1,2-dihydronaphthalene-1,2-dione], the 50% inhibitory concentration (IC50) stood at 25 µM.

For `COc1cccc2c(C)c(C(=O)O)[nH]c12`, the concentration for half-maximal inhibition (IC50) came to 6.8 µM.

With `[O-]/[N+](=C\c1ccncc1)c1ccccc1`, the IC50 is > 50 µM.

On to `O=C(NC1(O)C(=O)c2ccccc2C1=O)c1ccccc1` [N-(2-hydroxy-1,3-dioxo-2-indenyl)benzamide], for which the IC50 was > 50 µM.

In turn, `O=C(Nc1ccc2nc(-c3ccco3)c(-c3ccco3)nc2c1)N1CCCCCC1` displayed an IC50 of 23.7 µM.

With `CCn1nc(-c2cccs2)nc2c(=O)n(C)c(=O)nc1-2` [1-ethyl-6-methyl-3-thiophen-2-yl-pyrimido[5,4-e][1,2,4]triazine-5,7-dione], the IC50 is > 50 µM.

`CC(=O)Nc1cc(OC(C)=O)c2nonc2c1OC(C)=O` [Acetic acid 7-acetoxy-5-acetylamino-benzo[1,2,5]oxadiazol-4-yl ester]: the IC50 was > 50 µM.

`Cn1ncnc2c(=O)n(C)c(=O)nc1-2` yielded an IC50 of 35.5 µM.

`Nc1cccc2cnccc12` [isoquinolin-5-amine]: the IC50 is > 50 µM.

Take `COc1ccc2noc3c2c1C(=O)c1ccccc1-3` [MLS000106874]: the IC50 was > 50 µM.

As to `Oc1nc(Nc2ccccc2)cc2ccccc12` [MLS000043701], the IC50 is > 50 µM.

On to `N#Cc1c(N2CCCC2)nc(N)c2c(N)nc(N3CCCC3)cc12` [SMR000061605], for which the IC50 was > 50 µM.

Regarding `O=C(OC1CCCCC1)c1ccc2c(c1)C1C=CCC1C(C(=O)O)N2` (stereo unspecified) [SMR000019385], the IC50 is 2.79 µM.

In turn, `COc1cccc2c1NC(C(=O)O)C1CC=CC21` (stereo unspecified) [SMR000009698] returned an IC50 of 8.23 µM.

Turning to `Cc1c(N=c2c(=O)c3ccccc3c2=O)c(=O)n(-c2ccccc2)n1C` [MLS000105950], the IC50 is > 50 µM.

For the compound `CCn1nc(-c2ccccc2)nc2c(=O)n(C)c(=O)nc1-2` [1-Ethyl-6-methyl-3-phenyl-1H-pyrimido[5,4-e][1,2,4]triazine-5,7-dione], the IC50 was > 50 µM.

Consider `[O-]/[N+](=C\c1ccc(OC(F)F)cc1)c1ccccc1` [1-[4-(difluoromethoxy)phenyl]-N-phenylmethanimine oxide], for which the IC50 was > 50 µM.

`N#Cc1c(N)sc(=S)c2c1CCN(Cc1ccccc1)C2` [3-Amino-7-benzyl-1-thioxo-5,6,7,8-tetrahydro-1H-thiopyrano[3,4-c]pyridine-4-carbonitrile] showed an IC50 of 43 µM.

Take `c1ccc(CSc2nnc(-c3ccco3)c(-c3ccco3)n2)cc1` [MLS-0029114.0001]: 11.1 µM corresponded to half-maximal inhibition (IC50).

Take `Cc1ccccc1Nc1cc2ccccc2c(O)n1` [3-[(2-methylphenyl)amino]-2H-isoquinolin-1-one]: the concentration for half-maximal inhibition (IC50) was > 50 µM.

Turning to `O=C1Cc2ccccc2C(=O)N1CCc1ccccc1` [2-(2-phenylethyl)-4H-isoquinoline-1,3-dione], the IC50 is > 50 µM.

For the compound `Cc1ccc2c(c1C)NC(C(=O)O)C1CC=CC21` (stereo unspecified), the IC50 turned out to be 4.73 µM.

As for `CCOc1ccc2noc3c2c1C(=O)c1ccccc1-3` [MLS000106837], the IC50 was > 50 µM.

For `CCOC(=O)C(C(=O)OCC)c1cc(Br)c2noc3c2c1C(=O)c1ccccc1-3` [MLS000038842], the IC50 was > 50 µM.

The term IC50 denotes the concentration at which inhibition is half-maximal.
